For one assay, the target named is T1, L263E PfATP6 (Plasmodium falciparum, UniProt Q08853, L263E).
T1 construct: expressed in transfected cells; host or cells: Saccharomyces cerevisiae K667-derived strain
T1 sequence (Q08853 1-1228 L263E): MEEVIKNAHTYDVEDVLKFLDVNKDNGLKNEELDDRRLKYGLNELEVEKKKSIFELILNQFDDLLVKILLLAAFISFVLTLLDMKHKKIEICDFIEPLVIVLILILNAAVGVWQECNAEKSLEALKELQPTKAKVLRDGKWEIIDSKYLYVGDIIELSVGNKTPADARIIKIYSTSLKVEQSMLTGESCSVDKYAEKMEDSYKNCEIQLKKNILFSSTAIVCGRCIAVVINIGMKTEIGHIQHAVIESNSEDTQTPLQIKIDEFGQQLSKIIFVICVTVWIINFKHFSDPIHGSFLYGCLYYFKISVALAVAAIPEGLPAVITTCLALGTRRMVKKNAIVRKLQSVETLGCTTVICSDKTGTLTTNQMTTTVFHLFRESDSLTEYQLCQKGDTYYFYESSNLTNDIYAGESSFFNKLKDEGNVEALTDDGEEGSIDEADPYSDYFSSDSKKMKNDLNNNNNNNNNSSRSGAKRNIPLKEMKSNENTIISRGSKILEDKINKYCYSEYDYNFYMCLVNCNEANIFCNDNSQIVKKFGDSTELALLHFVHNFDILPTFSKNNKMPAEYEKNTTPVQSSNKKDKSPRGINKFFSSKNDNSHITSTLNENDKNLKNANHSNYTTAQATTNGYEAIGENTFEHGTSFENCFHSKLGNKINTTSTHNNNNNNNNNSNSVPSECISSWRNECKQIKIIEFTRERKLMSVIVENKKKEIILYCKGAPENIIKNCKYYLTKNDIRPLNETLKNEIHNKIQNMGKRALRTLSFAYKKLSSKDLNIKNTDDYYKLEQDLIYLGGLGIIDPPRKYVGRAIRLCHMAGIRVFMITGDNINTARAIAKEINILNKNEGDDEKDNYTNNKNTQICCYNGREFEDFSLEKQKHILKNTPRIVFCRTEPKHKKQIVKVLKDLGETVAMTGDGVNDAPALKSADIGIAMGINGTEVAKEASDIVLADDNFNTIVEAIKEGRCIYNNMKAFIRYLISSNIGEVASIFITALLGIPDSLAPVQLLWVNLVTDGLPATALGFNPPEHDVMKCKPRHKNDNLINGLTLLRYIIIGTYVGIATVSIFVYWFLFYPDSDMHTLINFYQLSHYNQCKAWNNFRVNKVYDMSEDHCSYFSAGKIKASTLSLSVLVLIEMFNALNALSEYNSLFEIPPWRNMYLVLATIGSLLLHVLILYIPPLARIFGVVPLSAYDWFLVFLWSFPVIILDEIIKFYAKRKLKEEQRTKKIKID
As to the kind of experiment: Yeast whole-cell assay, PfATP6 L263E mutant. Type of assay: cell-based. The conditions noted are these: L263 mutant; read-out: IC50 (mean ± SD). Here is the method: Yeast transformations were performed using the method described by Gietz and Schiestl ([48]), and transformants were selected by an uracil auxotrophic marker. Transformations were confirmed by colony PCR. Both K667 and K667Δpdr5::HIS were transformed with the following plasmids: pUGpd plasmid as a vector-only control (derived from pRS316 [49]); br434 plasmid (derived from pRS316 [50]) containing the SERCA1a coding region from rabbit skeletal fast-twitch muscle (pbr434-SERCA1a); and pUGpd containing the yeast-optimized coding region of PfATP6 from Plasmodium falciparum (pUGpd-PfATP6). Site-directed mutagenesis was performed on the SERCA1a coding region to produce the mutation E255L in the protein. Mutations were also introduced into the PfATP6 coding region to produce mutations L263E, A623E, and S769N and the double mutation A623E/S769N ([13]).
The screening assay used here was developed from the protocol used by Pulcini et al. ([13]). […] The optimal calcium concentration was periodically monitored and, if necessary, adjusted using a calcium concentration range of 10 to 30 mM. […] The yeast growth was estimated from the absorbance at 620 nm in a Tecan plate reader. […] The data collected were analyzed using GraphPad Prism v9.0 (GraphPad software, San Diego, CA, U.S.A).

For another assay, the target named is PfATP6 (Plasmodium falciparum, UniProt Q08853). Description: In vitro activity assay, PfATP6 (membrane-bound). Type of assay: biochemical. Conditions: 1 μM free calcium. Details: pUGpd containing the yeast-optimized coding region of PfATP6 from Plasmodium falciparum; expressed in transfected cells. How it is done: Activity assays were performed as described by Longland et al. ([55]) and LeBel et al. ([56]), except that the reaction mixtures were incubated at 30°C instead of 37°C. […] Then, 5.8 mM ATP was added and incubated for an additional 15 min at 30°C. The reaction was stopped with 0.5 mL 6.5% trichloroacetic acid (TCA) on ice, and the mixture was centrifuged at 4°C for 10 min at 16,000 × g; 0.5 mL of the supernatant was added to 1.5 mL of copper acetate buffer (0.25% copper sulfate pentahydrate, 4.6% sodium acetate trihydrate, dissolved in 2 M acetic acid [pH 4.0]) and mixed by vortex-mixing before the addition of 0.25 mL of 5% ammonium molybdate, followed by 0.25 mL METOL buffer (2% p-methyl-aminophenol sulfate, 5% sodium sulfite). Samples were incubated for 10 min, and the absorbance was measured at 870 nm in a spectrophotometer. The Pi standard was 0.4387 g/100 mL KH2PO4.
Sequence of PfATP6 (Q08853 whole entry): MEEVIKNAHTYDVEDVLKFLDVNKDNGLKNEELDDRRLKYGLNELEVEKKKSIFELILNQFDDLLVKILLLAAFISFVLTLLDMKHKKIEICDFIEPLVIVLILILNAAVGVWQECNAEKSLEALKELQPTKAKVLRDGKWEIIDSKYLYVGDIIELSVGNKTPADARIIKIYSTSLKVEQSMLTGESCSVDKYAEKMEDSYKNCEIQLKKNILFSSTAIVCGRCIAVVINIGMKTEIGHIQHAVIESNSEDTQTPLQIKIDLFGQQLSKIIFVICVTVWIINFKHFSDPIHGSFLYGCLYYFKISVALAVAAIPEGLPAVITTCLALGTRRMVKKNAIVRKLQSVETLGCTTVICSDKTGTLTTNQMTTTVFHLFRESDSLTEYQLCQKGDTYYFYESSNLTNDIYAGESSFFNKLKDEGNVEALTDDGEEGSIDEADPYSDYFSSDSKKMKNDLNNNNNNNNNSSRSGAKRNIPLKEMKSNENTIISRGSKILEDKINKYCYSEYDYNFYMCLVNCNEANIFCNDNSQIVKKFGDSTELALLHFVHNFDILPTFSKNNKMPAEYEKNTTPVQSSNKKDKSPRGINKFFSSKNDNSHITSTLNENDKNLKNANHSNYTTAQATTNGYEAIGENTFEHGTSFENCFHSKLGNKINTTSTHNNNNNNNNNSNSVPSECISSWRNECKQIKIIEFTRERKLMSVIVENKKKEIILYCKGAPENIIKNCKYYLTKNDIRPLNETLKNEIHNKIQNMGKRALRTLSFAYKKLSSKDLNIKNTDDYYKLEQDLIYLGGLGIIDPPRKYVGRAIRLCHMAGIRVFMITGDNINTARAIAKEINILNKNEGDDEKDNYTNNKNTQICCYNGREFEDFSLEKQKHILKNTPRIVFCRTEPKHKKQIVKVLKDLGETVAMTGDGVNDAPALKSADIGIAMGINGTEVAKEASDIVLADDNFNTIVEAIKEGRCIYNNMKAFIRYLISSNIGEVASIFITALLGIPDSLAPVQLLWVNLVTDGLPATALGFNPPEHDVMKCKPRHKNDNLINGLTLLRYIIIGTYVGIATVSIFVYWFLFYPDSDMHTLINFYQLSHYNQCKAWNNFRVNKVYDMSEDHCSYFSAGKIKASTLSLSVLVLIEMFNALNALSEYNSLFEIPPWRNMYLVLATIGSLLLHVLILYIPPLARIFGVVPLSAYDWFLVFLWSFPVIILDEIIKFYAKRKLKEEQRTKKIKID

The record followed here is publication PMC9112895, “Selective Inhibition of Plasmodium falciparum ATPase 6 by Artemisinins and Identification of New Classes of Inhibitors after Expression in Yeast” (Antimicrobial Agents and Chemotherapy, 2022).

On to `CC(=O)C1=C(O)[C@@H]2[C@H]3c4c[nH]c5cccc(c45)C[C@H]3C(C)(C)N2C1=O` [CPA, cyclopiazonic acid], for which, at L263E PfATP6, the IC50 was 5.21 µM. For the same compound, the “in vitro activity of PfATP6 versus no drug control” value on PfATP6 is “No significant”.

For orientation: IC50 means the concentration needed to halve the response being measured.
